Tested on: α7 integrin promoter
Assay: muscle cell-based assay: α7βgal+/− myoblasts/myotubes, LacZ reporter, β-galactosidase cleavage of FDG
Design: species or system mouse
Settings: Myotubes; for Results in a α7+/− β-galactosidase assay, Myotubes, 0.5 uM: compound at 0.5 uM; for Results in a α7+/− β-galactosidase assay, Myotubes, 1 uM: compound at 1 uM; for Results in a α7+/− β-galactosidase assay, Myotubes, 5 uM: compound at 5 uM; for Results in a α7+/− β-galactosidase assay, Myotubes, 10 uM: compound at 10 uM; for Results in a α7+/− β-galactosidase assay, Myotubes, 20 uM: compound at 20 uM; for Results in a α7+/− β-galactosidase assay, Myotubes, 40 uM: compound at 40 uM
How it was run: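 Fluorescein generated from FDG by β-galactosidase reports α7 integrin promoter activity in differentiated myoblasts from α7+/− LacZ knock-in pups. Screening hits then went to dose-response, western blotting and a myostatin counterscreen.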

## Cc1ccc(NS(=O)(=O)c2ccc(-c3ccc(O)nn3)o2)c(C)c1 [drawing 477]
  Results in a α7+/− β-galactosidase assay, Myotubes, 0.5 uM: −0.04997
  Results in a α7+/− β-galactosidase assay, Myotubes, 1 uM: 0.003075
  Results in a α7+/− β-galactosidase assay, Myotubes, 5 uM: −0.3008
  Results in a α7+/− β-galactosidase assay, Myotubes, 10 uM: −0.389
  Results in a α7+/− β-galactosidase assay, Myotubes, 20 uM: −0.09047
  Results in a α7+/− β-galactosidase assay, Myotubes, 40 uM: −0.1539

## CCCCN1CC(=O)N2Cc3[nH]c4ccccc4c3C[C@H]2C1=O [drawing 478]
  Results in a α7+/− β-galactosidase assay, Myotubes, 0.5 uM: −0.1229
  Results in a α7+/− β-galactosidase assay, Myotubes, 1 uM: −0.1432
  Results in a α7+/− β-galactosidase assay, Myotubes, 5 uM: −0.3665
  Results in a α7+/− β-galactosidase assay, Myotubes, 10 uM: −0.4899
  Results in a α7+/− β-galactosidase assay, Myotubes, 20 uM: −0.2121
  Results in a α7+/− β-galactosidase assay, Myotubes, 40 uM: −0.2272

## CCC(CC)C(=O)Nc1c(C(=O)N2CCN(c3ccccc3)CC2)oc2ccccc12 [drawing 479]
  Results in a α7+/− β-galactosidase assay, Myotubes, 0.5 uM: −0.04763
  Results in a α7+/− β-galactosidase assay, Myotubes, 1 uM: −0.04983
  Results in a α7+/− β-galactosidase assay, Myotubes, 5 uM: −0.2904
  Results in a α7+/− β-galactosidase assay, Myotubes, 10 uM: −0.3853
  Results in a α7+/− β-galactosidase assay, Myotubes, 20 uM: −0.08708
  Results in a α7+/− β-galactosidase assay, Myotubes, 40 uM: −0.02043

## Cc1nc(/C=C2\C(=O)Nc3ccccc32)c[nH]1 [drawing 480]
  Results in a α7+/− β-galactosidase assay, Myotubes, 0.5 uM: 0.01879
  Results in a α7+/− β-galactosidase assay, Myotubes, 1 uM: −0.05703
  Results in a α7+/− β-galactosidase assay, Myotubes, 5 uM: 0.093
  Results in a α7+/− β-galactosidase assay, Myotubes, 10 uM: 0.007066
  Results in a α7+/− β-galactosidase assay, Myotubes, 20 uM: 0.01022
  Results in a α7+/− β-galactosidase assay, Myotubes, 40 uM: −0.04283

## O=C(NCCc1ccc(Cl)cc1)C1CCCO1 (stereo not drawn) [drawing 481]
  Results in a α7+/− β-galactosidase assay, Myotubes, 0.5 uM: 0.008299
  Results in a α7+/− β-galactosidase assay, Myotubes, 1 uM: −0.0666
  Results in a α7+/− β-galactosidase assay, Myotubes, 5 uM: 0.2373
  Results in a α7+/− β-galactosidase assay, Myotubes, 10 uM: −0.07246
  Results in a α7+/− β-galactosidase assay, Myotubes, 20 uM: −0.08414
  Results in a α7+/− β-galactosidase assay, Myotubes, 40 uM: −0.169

## CCNC(=O)C(=O)Nc1cc2c3c(c1)CCN3C(=O)CC2 [drawing 482]
  Results in a α7+/− β-galactosidase assay, Myotubes, 0.5 uM: 0.05071
  Results in a α7+/− β-galactosidase assay, Myotubes, 1 uM: −0.07574
  Results in a α7+/− β-galactosidase assay, Myotubes, 5 uM: 0.4036
  Results in a α7+/− β-galactosidase assay, Myotubes, 10 uM: −0.03505
  Results in a α7+/− β-galactosidase assay, Myotubes, 20 uM: −0.1926
  Results in a α7+/− β-galactosidase assay, Myotubes, 40 uM: −0.2686

## Cc1cccc(NCC(=O)N/N=C/c2ccccn2)c1 [drawing 483]
  Results in a α7+/− β-galactosidase assay, Myotubes, 0.5 uM: 0.07633
  Results in a α7+/− β-galactosidase assay, Myotubes, 1 uM: −0.04251
  Results in a α7+/− β-galactosidase assay, Myotubes, 5 uM: 0.2712
  Results in a α7+/− β-galactosidase assay, Myotubes, 10 uM: −0.04805
  Results in a α7+/− β-galactosidase assay, Myotubes, 20 uM: 0.03613
  Results in a α7+/− β-galactosidase assay, Myotubes, 40 uM: −0.1705

## COc1ccc(CN2CCNC(=O)C2CC(=O)NCCc2c[nH]c3ccccc23)c(OC)c1 (stereo not drawn) [drawing 484]
  Results in a α7+/− β-galactosidase assay, Myotubes, 0.5 uM: −0.059
  Results in a α7+/− β-galactosidase assay, Myotubes, 1 uM: −0.1025
  Results in a α7+/− β-galactosidase assay, Myotubes, 5 uM: 0.1466
  Results in a α7+/− β-galactosidase assay, Myotubes, 10 uM: −0.2654
  Results in a α7+/− β-galactosidase assay, Myotubes, 20 uM: −0.1345
  Results in a α7+/− β-galactosidase assay, Myotubes, 40 uM: −0.1806

## O=c1c2cc(-c3ccccc3)sc2nc2n1N=C(c1ccccc1)CS2 [drawing 485]
  Results in a α7+/− β-galactosidase assay, Myotubes, 0.5 uM: 0.02668
  Results in a α7+/− β-galactosidase assay, Myotubes, 1 uM: −0.1163
  Results in a α7+/− β-galactosidase assay, Myotubes, 5 uM: 0.0299
  Results in a α7+/− β-galactosidase assay, Myotubes, 10 uM: −0.3812
  Results in a α7+/− β-galactosidase assay, Myotubes, 20 uM: −0.1377
  Results in a α7+/− β-galactosidase assay, Myotubes, 40 uM: −0.1734

## Nc1ncnc(NCc2ccccc2)c1[N+](=O)[O-] [drawing 486]
  Results in a α7+/− β-galactosidase assay, Myotubes, 0.5 uM: 0.008395
  Results in a α7+/− β-galactosidase assay, Myotubes, 1 uM: −0.1282
  Results in a α7+/− β-galactosidase assay, Myotubes, 5 uM: 0.2507
  Results in a α7+/− β-galactosidase assay, Myotubes, 10 uM: −0.3338
  Results in a α7+/− β-galactosidase assay, Myotubes, 20 uM: −0.03158
  Results in a α7+/− β-galactosidase assay, Myotubes, 40 uM: −0.2067

## O=CN1CCN(C(=O)CC(c2ccccc2)c2cc(Br)ccc2O)CC1 (stereo not drawn) [drawing 487]
  Results in a α7+/− β-galactosidase assay, Myotubes, 0.5 uM: −0.0643
  Results in a α7+/− β-galactosidase assay, Myotubes, 1 uM: −0.1354
  Results in a α7+/− β-galactosidase assay, Myotubes, 5 uM: 0.1295
  Results in a α7+/− β-galactosidase assay, Myotubes, 10 uM: −0.2355
  Results in a α7+/− β-galactosidase assay, Myotubes, 20 uM: −0.0629
  Results in a α7+/− β-galactosidase assay, Myotubes, 40 uM: −0.1726

## Cc1ccc2c(c1)/C(=C/c1ccco1)C(=O)N2 [drawing 488]
  Results in a α7+/− β-galactosidase assay, Myotubes, 0.5 uM: −0.00427
  Results in a α7+/− β-galactosidase assay, Myotubes, 1 uM: −0.00615
  Results in a α7+/− β-galactosidase assay, Myotubes, 5 uM: 0.07579
  Results in a α7+/− β-galactosidase assay, Myotubes, 10 uM: −0.3334
  Results in a α7+/− β-galactosidase assay, Myotubes, 20 uM: 0.0134
  Results in a α7+/− β-galactosidase assay, Myotubes, 40 uM: −0.2855

## O=C1CCC(C(=O)N2CCSCC2)CN1Cc1ccc(Cl)cc1 (stereo not drawn) [drawing 489]
  Results in a α7+/− β-galactosidase assay, Myotubes, 0.5 uM: 0.02632
  Results in a α7+/− β-galactosidase assay, Myotubes, 1 uM: 0.1369
  Results in a α7+/− β-galactosidase assay, Myotubes, 5 uM: 0.02663
  Results in a α7+/− β-galactosidase assay, Myotubes, 10 uM: 0.3226
  Results in a α7+/− β-galactosidase assay, Myotubes, 20 uM: 0.2089
  Results in a α7+/− β-galactosidase assay, Myotubes, 40 uM: 0.5544
